# Measurements published in US5489582A, “14-deoxy-14α-cardenolides 3β-thioderivatives and pharmaceutical composition comprising same for treating cardiovascular disorders” (Sigma-Tau Industrie Farmaceutiche Riuntie S.p.A, priority 1992, dated 1996).
# Where a name gives a salt, the structure may show the parent alone.
# Experiments:
# hypertensive MHS rats = test: systolic blood pressure and heart rate in hypertensive MHS rats, indirect tail-cuff method, oral; type: in vivo, rat (MHS); details: n=7, 20 mg/kg os daily for ten days, in METHOCEL 0.5% w/v; for SBP (systolic blood pressure): controls 174 +/- 5.5; for HR (heart rate): controls 378 +/- 11.0
# Procedure: The ability of these compounds to lower blood pressure in adult hypertensive MHS rats was tested by the following method:
# systolic blood pressure (SBP) and heart rate (HR) were measured by an indirect tail-cuff method in three-month old hypertensive MHS rats before beginning treatment (basal values). The rats were then subdivided in two groups of 7 animals each, one receiving the compound and the other, the control group, receiving only the vehicle. The compound, suspended in METHOCEL® 0.5% (w/v), for ten days, was administered daily by mouth. SBP and HR were measured daily 6 and 24 hours after the treatment. When ten-day treatment washout had been under way for at least two days, whether the treatment maintains SBP low or re-establish the basal values was verified. […]
# Na^+,K^+ -ATPase [1] = target: T1, Na^+,K^+ -ATPase (Homo sapiens, UniProt P05023); test: displacement of the specific 3H-ouabain binding from the purified Na+,K+-ATPase receptor
# T1 construct: Na^+,K^+ -ATPase receptor purified according to Jorghensen; from tissue
# From the text: (§1) To test the affinity for the receptor site of the Na^+,K^+ -ATPase and the agonist or inhibitory activity on the enzyme, the following tests were used: a) displacement of the specific 3H-ouabain binding from the Na^+,K^+ -ATPase receptor purified according to Jorghensen (Jorghensen P., BBA, 1974, 356, 36) and Erdmann (Erdmann E. et al., Arzneim. Forsh., 1984, 34 (II), 1314); b) inhibition of the activity of the purified Na^+,K^+ -ATPase measured as % of hydrolysis of ^32 P-ATP in presence and in absence of the tested compound (Mall F. et al., Biochem. Pharmacol., 1984, 33, 47).
# Na^+,K^+ -ATPase [2] = target: T1, Na^+,K^+ -ATPase; test: inhibition of the activity of the purified Na+,K+-ATPase (% hydrolysis of 32P-ATP); type: biochemical
# From the text: as §1
# [3] = 3H-ouabain displacement, purified Na+,K+-ATPase, read-out: Binding ^3 H-Ouab. Displacement log. IC50 (converted)
# [4] = purified Na+,K+-ATPase, 32P-ATP hydrolysis, read-out: Inhibitory Activity log. IC50 (converted)
Compound,SBP (systolic blood pressure) (hypertensive MHS rats),HR (heart rate) (hypertensive MHS rats),"IC50 (Na^+,K^+ -ATPase [1]; [3])","IC50 (Na^+,K^+ -ATPase [2])","IC50 (Na^+,K^+ -ATPase [1])","IC50 (Na^+,K^+ -ATPase [2]; [4])"
"C[C@]12CC[C@H](O)C[C@H]1CC[C@@H]1[C@@H]2CC[C@]2(C)[C@@H](C3=CC(=O)OC3)CC[C@]12O [DIGI, digitoxigenin, reference compound]",173 +/- 4.0 mm Hg,380 +/- 10.0 beats/min.,–,–,–,–
"C[C@]12CC[C@H](SCCN3CCCC3)C[C@H]1CC[C@@H]1[C@@H]2CC[C@]2(C)[C@@H](C3=CC(=O)OC3)CC[C@@H]12 [I-a, 3β-(2-(1-Pyrrolidinyl)ethylthio)-5β,14α-card-20(22)-enolideOxalate]",–,–,3160 nM,5010 nM,–,–
"CN(C)CCCS[C@H]1CC[C@@]2(C)[C@H](CC[C@@H]3[C@@H]2CC[C@]2(C)[C@@H](C4=CC(=O)OC4)CC[C@@H]32)C1 [I-b, 3β-(3-Dimethylaminopropylthio)-5β,14α-card-20(22)-enolide Oxalate]",–,–,1000 nM,3160 nM,–,–
"C[C@]12CC[C@H](SCCCN3CCNCC3)C[C@H]1CC[C@@H]1[C@@H]2CC[C@]2(C)[C@@H](C3=CC(=O)OC3)CC[C@@H]12 [I-c, 3β-(3-(1-Piperazinyl)propylthio)-5β,14α-card-20(22)-enolideDioxalate]",144 +/- 6.2 mm Hg,390 +/- 12.0 beats/min.,794 nM,1580 nM,–,–
"C[C@]12CC[C@H](SCCCN)C[C@H]1CC[C@@H]1[C@@H]2CC[C@]2(C)[C@@H](C3=CC(=O)OC3)CC[C@@H]12 [I-d, 3β-(3-Aminopropylthio)-5β,14α-card-20(22)-enolide Oxalate]",154 +/- 5.2 mm Hg,384 +/- 10.3 beats/min.,–,2000 nM,1260 nM,–
"C[C@]12CC[C@H](SCC(O)CN3CCCC3)C[C@H]1CC[C@@H]1[C@@H]2CC[C@]2(C)[C@@H](C3=CC(=O)OC3)CC[C@@H]12 (stereo partly drawn) [I-e, 3β-(3-(1-Pirrolidinyl)-2-hydroxypropylthio)-5β,14α-card-20(22)-enolide]",–,–,2000 nM,–,–,3980 nM
"C[C@]12CC[C@H]3[C@@H](CCC4=C[C@@H](SCCCN)CC[C@@]43C)[C@@H]1CC[C@@H]2C1=CC(=O)OC1 [I-f, 3β-(3-Aminopropylthio)-14α-card-4,20(22)-dienolide Oxalate]",148 +/- 5.6 mm Hg,386 +/- 9.3 beats/min.,1260 nM,–,–,3160 nM
"C[C@]12CC[C@H]3[C@@H](CC=C4C[C@@H](SCCCN)CC[C@@]43C)[C@@H]1CC[C@@H]2C1=CC(=O)OC1 [I-g, 3β-(3-Aminopropylthio)-14α-card-5,20(22)-dienolide Oxalate]",150 +/- 5.2 mm Hg,383 +/- 9.6 beats/min.,1000 nM,–,–,2000 nM
"C[C@]12CC[C@H](SCCCN)C[C@@H]1CC[C@@H]1[C@@H]2CC[C@]2(C)[C@@H](C3=CC(=O)OC3)CC[C@@H]12 [I-h, 3β-(3-Aminopropylthio)-5α,14α-card-20(22)-enolide Oxalate]",158 +/- 5.4 mm Hg,379 +/- 10.4 beats/min.,–,3980 nM,1580 nM,–
